# Test results reported in patent US9199983B2, “3-aryl-6-aryl-[1,2,4]triazolo[4,3-α]pyridines as inhibitors of cell proliferation and the use thereof” (priority 2010, dated 2015).
# pEC50, pIC50: −log10 of the molar value. Structures can show the parent of a compound that is named as a salt.
# What was measured:
# [1] = tested on: Human lung cancer cell line A549; test: MTT cancer cell cytotoxicity assay, A549; format: cell-based; settings: Homo sapiens, A549 cells, 48-72 h
# Procedure, shortened: (§1)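 Seeding: HepG2 and A549 at 3000, SMMC7721 at 5000, B16F10 at 2000 cells/well, attached overnight. Compounds (10 μM to 1 nM, triplicate) were applied for 48-72 h at 37 °C, followed by 4 h MTT. A550 minus A660 was fitted for IC50, with untreated wells as maximum and reference-drug total kill as background.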
# [2] = tested on: liver cancer cell line HepG2; test: MTT cancer cell cytotoxicity assay, HepG2; format: cell-based, human; settings: Homo sapiens, HepG2 cells, 48-72 h
# Procedure, shortened: as §1
# [3] = tested on: liver cancer cell line SMMC7721; test: MTT cancer cell cytotoxicity assay, SMMC7721; format: cell-based, human; settings: Homo sapiens, SMMC-7721, SMMC7721 cells, 48-72 h
# Procedure, shortened: as §1
# [4] = tested on: breast cancer cell line T47D; test: MTT cancer cell cytotoxicity assay, T47D; format: cell-based, human; settings: Homo sapiens, T47D cells, 48-72 h
# Procedure, shortened: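 Human T47D breast cancer cells, cultured per ATCC recommendations with 10% fetal bovine serum and penicillin/streptomycin, were plated at 3000 cells/well in 96-well plates. After overnight attachment they were exposed in triplicate to compounds (10 μM to 1 nM) for 48-72 h. MTT was then added for 4 h and the formazan dissolved in DMSO. Absorbance at 550 nm minus 660 nm was fitted in Prism 5 to give IC50.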
# [5] = tested on: mouse melanoma cell line B16F10; test: MTT cancer cell cytotoxicity assay, B16F10; format: cell-based; settings: Mus musculus, B16-F10, B16F10 cells, 48-72 h
# Experimental: Identification of 3-(2-methoxyphenyl)-6-(4-methoxyphenyl)-[1,2,4]triazolo[4,3-a]pyridine and analogs as inhibitors of cell proliferation that were evaluated with standard MTT cancer cell cytotoxicity assay (IC50)
# Human lung cancer cell line A549, breast cancer cell line T47D, liver cancer cell lines HepG2 and SMMC7721 as well as a mouse melanoma cell line B16F10 were used in the study. The cells were cultured in corresponding growth media recommended by American Type Culture Collection (ATCC) with the supplementation of penicillin G (100 U/ml)/streptomycin (100 µg/ml), and 10% fetal bovine serum (Hangzhou Sijiqing Biological Engineering Materials, Co., Ltd. China) at 37° C. in a humidified atmosphere containing 5% CO2. Cells at about 80% confluency were harvested by trypsinization. Cells were centrifuged, re-suspended in fresh growth media and counted. Corresponding numbers of cells were seeded to 96-well cell culture plates (HepG2 cell, T-47D and A549 cells at 3000 cells/well, SMMC-7721 cells at 5000 cells/well and B16F10 cells at 2000 cells/well) in a total volume of […]. Cells were incubated in CO2 incubator over night to allow the cells to attach. In next day, […] of medium containing testing (from 10 μM to 1 nM) or reference compounds was added to each well of the cells. Media without compound were used as 100% control. Cells were treated with each concentration of compounds in triplicates to ensure data accuracy. Cells were incubated with compounds in CO2 incubator for an additional 48-72 h at 37° C. After incubation, cells were removed from the CO2 incubator and […] of 5 mg/ml MTT (3-(4,5-dimethylthiazole-2-yl)-2,5-diphenyltetrazoliumbromide, Sigma) solution in PBS was added to each well. Cells were returned to CO2 incubator and incubated for additional 4 h. After the incubation, media were removed by aspiration and […] DMSO was added to each well. Plates were sealed with aluminum foil and shaked mildly on an orbital shaker for 10 min at room temperature. The absorption was measured at 550 nm with a plate reader (Varioskan Flash, Thermo Fisher Scientific) with 660 nm reading used as background control. The relative absorbance readings were calculated by subtracting readings at 660 nm from that at 550 nm. The relative absorbance was plotted again the concentrations of the testing compounds and the plots were fitted with a one-site lg(IC50) equation using Prism 5 software (GraphPad Software, Inc). The equation used in the curve fitting is as follows: relative absorbance reading=background reading+(maximal reading−brackground reading)/(1+10 ^(compound concentration-log IC50)). The background reading used in the calculation was obtained with 100% cell death using a reference anticancer drug, whereas the maximal reading was obtained in the well with no added compound. The IC50 value calculated from the equation represents the cytotoxic potency of a particular compound.
# caspase-3 activation [6] = test: Caspase-3 activation (apoptosis induction) in T-47D cells; format: cell-based; settings: Homo sapiens; T47D cells, 24 h treatment; read-out: EC50 to induce caspase-3 activation, T47D
# Experimental: (§2) Identification of 3-(2-methoxyphenyl)-6-(4-methoxyphenyl)-[1,2,4]triazolo[4,3-a]pyridine and analogs as inducers of apoptosis in solid tumor cells
# (§3) Human breast cancer cell line T-47D and lung cancer cell line A549, growing in DMEM/F12+10% FBS media were seeded to a density of 20000 cells/well in 96-well cell culture plate and grew overnight (18-24 h) in CO2 cell culture incubator at 37° C. Next day the medium were removed by aspiration and […] fresh growth media was added to each well followed by […] of growth media containing 10× concentration of reference or testing compounds with 10% DMSO. Twenty four hours later, cell culture plates were centrifuged at 1000 g for 5 min and the supernatant was removed by emptying contents into a reservoir. Fifty μl of Lysis Buffer (10 mM Tris, pH7.5, 0.1M NaCl, 1 Mm EDTA, 0.01% Triton X-100) was added to each well and the plates were incubated with gentle agitation on an orbital shaker at 4° C. for 30 min. The plates were then centrifuged at 1000 g for 10 min at 4° C. and 20 μl of the supernatant was transferred from each well to a corresponding well in a black 384-well. Twenty μl of caspase-3 assay buffer (20 mM PIPES, pH7.4, 4 Mm EDTA and 0.2% CHAPS) containing 20 μM fluorogenic caspase-3 substrate ((Ac-DEVD)2-R110, AnaSpec Cat #60304-5) was added to each well. The samples were mixed by agitation and incubated at 37° C. for 3 h. The fluorescent intensity of each well was read on a fluorescent plate reader (Varioskan Flash, Thermo Fisher Scientific) with excitation wavelength at 496 nm and emission wavelength at 520 nm. The activity of compounds on caspase-3 activation was determined by plotting the relative fluorescent unit (RFU) against the testing concentrations of the compounds. The EC50 values were determined by fitting the above responding curves into Prism sigmoidal dose-response equation (GraphPad Software, Inc).
# caspase-3 activation [7] = test: Caspase-3 activation (apoptosis induction) in A549 cells; format: cell-based; settings: Homo sapiens, A-549 cells, 24 h treatment, read-out: EC50 to induce caspase-3 activation, A-549
# Experimental: as §2, §3
SMILES,pIC50 [1],pIC50 [2],pIC50 [3],pIC50 [4],pIC50 [5],pEC50 (caspase-3 activation [6]),pEC50 (caspase-3 activation [7])
"COc1ccc(-c2ccc3nnc(-c4ccc(C)cc4OC)n3c2)cc1N [Example 52, 6-(3-Amino-4-methoxyphenyl)-3-(2-methoxy-4-methylphenyl)-[1,2,4]triazolo[4,3-a]pyridine]",8.59,8.64,8.74,8.70,8.68,8.27,
"COc1ccc(-c2ccc3nnc(-c4ccc([N+](=O)[O-])cc4OC)n3c2)cc1 [Example 70, 3-(2-Methoxy-4-nitrophenyl)-6-(4-methoxyphenyl)-[1,2,4]triazolo[4,3-a]pyridine]",8.17,7.66,8.00,7.89,8.36,7.66,
"COc1ccc(-c2ccc3nnc(-c4ccc(Br)cc4OC)n3c2)cc1 [Example 59, 3-(4-Bromo-2-methoxyphenyl)-6-(4-methoxyphenyl)-[1,2,4]triazolo[4,3-a]pyridine]",7.92,8.15,8.42,8.18,8.21,7.60,
"COc1ccc(-c2ccc3nnc(-c4ccccc4OC)n3c2)cc1Cl [Example 26, 6-(3-Chloro-4-methoxyphenyl)-3-(2-methoxyphenyl)-[1,2,4]triazolo[4,3-a]pyridine]",7.48,7.64,7.92,7.28,7.64,6.62,7.49
"COc1ccc(-c2ccc3nnc(-c4ccc(Cl)cc4OC)n3c2)cc1 [Example 57, 3-(4-Chloro-2-methoxyphenyl)-6-(4-methoxyphenyl)-[1,2,4]triazolo[4,3-a]pyridine]",8.47,8.47,8.17,8.39,8.80,7.70,8.30
"COc1ccc(-c2ccc3nnc(-c4ccccc4OC)n3c2)cc1F [Example 35, 6-(3-Fluoro-4-methoxyphenyl)-3-(2-methoxyphenyl)-[1,2,4]triazolo[4,3-a]pyridine]",7.70,7.72,8.00,7.17,7.80,6.64,7.60
"COc1ccc(-c2ccc3nnc(-c4ccccc4OC)n3c2)cc1 [Example 1, 3-(2-Methoxyphenyl)-6-(4-methoxyphenyl)-[1,2,4]triazolo[4,3-a]pyridine]",7.46,7.55,7.89,7.43,7.44,7.26,7.08
"COc1ccc(-c2ccc3nnc(-c4ccc(C)cc4OC)n3c2)cc1F [Example 53, 6-(3-Fluoro-4-methoxyphenyl)-3-(2-methoxy-4-methylphenyl)-[1,2,4]triazolo[4,3-a]pyridine]",8.13,8.24,8.08,8.17,8.21,8.04,
"COc1ccc(-c2ccc3nnc(-c4ccc(Cl)cc4OC)n3c2)cc1O [Example 89, 3-(4-Chloro-2-methoxyphenyl)-6-(3-hydroxy-4-methoxyphenyl)-[1,2,4]triazolo[4,3-a]pyridine]",8.80,8.85,< 5.00,9.08,8.96,8.64,
"COc1ccc(-c2ccc3nnc(-c4ccc(C)cc4OC)n3c2)cc1O [Example 51, 6-(3-Hydroxy-4-methoxyphenyl)-3-(2-methoxy-4-methylphenyl)-[1,2,4]triazolo[4,3-a]pyridine]",8.40,8.96,< 5.00,8.96,8.68,8.55,
"COc1ccc(-c2ccc3nnc(-c4ccc(Cl)cc4OC)n3c2)cc1F [Example 49, 3-(4-Chloro-2-methoxyphenyl)-6-(3-fluoro-4-methoxyphenyl)-[1,2,4]triazolo[4,3-a]pyridine]",8.31,8.48,8.34,8.35,8.31,8.03,
"COc1ccc(-c2ccc3nnc(-c4ccc(C)cc4OC)n3c2)cc1 [Example 66, 3-(2-Methoxy-4-methylphenyl)-6-(4-methoxyphenyl)-[1,2,4]triazolo[4,3-a]pyridine]",7.92,7.82,8.43,7.72,8.47,7.21,7.96
"COc1ccc(-c2ccc3nnc(-c4ccccc4OC)n3c2)cc1N [Example 46, 6-(3-Amino-4-methoxyphenyl)-3-(2-methoxyphenyl)-[1,2,4]triazolo[4,3-a]pyridine hydrochloride]",8.03,8.00,8.24,8.01,8.43,7.64,
"COc1ccc(-c2ccc3nnc(-c4ccc(Cl)cc4OC)n3c2)cc1N [Example 50, 6-(3-Amino-4-methoxyphenyl)-3-(4-chloro-2-methoxyphenyl)-[1,2,4]triazolo[4,3-a]pyridine]",8.77,8.85,8.89,8.96,8.80,8.46,
"CNc1ccc(-c2ccc3nnc(-c4ccccc4OC)n3c2)cc1 [Example 48, 6-(4-Methylaminophenyl)-3-(2-methoxyphenyl)-[1,2,4]triazolo[4,3-a]pyridine hydrochloride]",7.59,7.51,7.96,7.74,,7.13,
"COc1ccc(-c2ccc3nnc(-c4ccccc4OC)n3c2)cc1O [Example 20, 6-(3-Hydroxy-4-methoxyphenyl)-3-(2-methoxyphenyl)-[1,2,4]triazolo[4,3-a]pyridine]",7.89,7.96,< 5.00,7.74,7.74,7.80,
